Results on two molecules are retold here after paper PMC4804716 (The FEBS journal, 2015).

Data set [1] can be described thus: Cyclic voltammetry of menadione derivatives. It is filed as physicochemical. The note with it: for Epa1 / Ipc1/Ipa1 / E^1½: first wave; for Ipc1/Ipa1 / ΔEp (first wave): 0.1 M n-Bu4NPF6, v = 200 mV s^−1; for E^1½: 0.1 M n-Bu4NPF6, reference KCl(3 M)/Ag/AgCl; for ΔEp (first wave): ΔE = Epa-Epc.
For data set [2], the target named is T1, Schistosoma mansoni thioredoxin glutathione reductase (SmTGR) (Schistosoma mansoni, UniProt Q962Y6).
T1 sequence (Q962Y6 1-598): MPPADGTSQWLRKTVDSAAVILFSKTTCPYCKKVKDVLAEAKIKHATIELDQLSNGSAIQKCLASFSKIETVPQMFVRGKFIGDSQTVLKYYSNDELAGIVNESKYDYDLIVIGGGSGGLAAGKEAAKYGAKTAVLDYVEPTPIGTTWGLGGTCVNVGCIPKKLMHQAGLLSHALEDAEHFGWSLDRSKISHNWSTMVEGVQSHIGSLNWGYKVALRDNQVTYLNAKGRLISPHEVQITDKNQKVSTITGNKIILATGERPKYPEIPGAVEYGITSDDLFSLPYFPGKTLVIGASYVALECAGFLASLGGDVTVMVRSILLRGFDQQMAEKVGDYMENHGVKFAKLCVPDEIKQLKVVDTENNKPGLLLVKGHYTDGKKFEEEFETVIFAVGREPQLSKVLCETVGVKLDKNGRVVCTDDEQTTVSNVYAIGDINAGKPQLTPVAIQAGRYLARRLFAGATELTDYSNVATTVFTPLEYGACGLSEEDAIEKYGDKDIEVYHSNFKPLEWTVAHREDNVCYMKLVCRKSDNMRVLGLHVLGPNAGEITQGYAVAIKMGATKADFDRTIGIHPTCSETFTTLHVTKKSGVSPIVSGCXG

The next data set deals with T2, Sec498Cys TrxR (Homo sapiens, UniProt Q16881).
T2 sequence (Q16881 with tags, fused parts or gaps isoform Q16881-5): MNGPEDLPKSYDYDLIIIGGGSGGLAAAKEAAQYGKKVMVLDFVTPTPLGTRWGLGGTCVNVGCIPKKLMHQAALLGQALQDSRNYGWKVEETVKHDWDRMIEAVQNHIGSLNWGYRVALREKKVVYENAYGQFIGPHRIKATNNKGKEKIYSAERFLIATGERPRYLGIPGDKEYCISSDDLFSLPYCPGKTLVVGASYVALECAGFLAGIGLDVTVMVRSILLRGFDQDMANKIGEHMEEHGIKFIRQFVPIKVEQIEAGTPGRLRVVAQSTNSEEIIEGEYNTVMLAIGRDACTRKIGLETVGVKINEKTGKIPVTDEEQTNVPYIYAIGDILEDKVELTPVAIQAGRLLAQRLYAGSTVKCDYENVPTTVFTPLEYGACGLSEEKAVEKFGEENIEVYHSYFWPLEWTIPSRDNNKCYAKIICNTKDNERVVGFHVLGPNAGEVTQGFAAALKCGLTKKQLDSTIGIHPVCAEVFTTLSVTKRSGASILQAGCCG
Briefly: hTrxR mutant DTNB assay. It is filed as biochemical.

Data set [3] has as its target T3, human glutathione reductase (hGR) (Homo sapiens, UniProt P00390).
T3 sequence (P00390 1-479 isoform P00390-2): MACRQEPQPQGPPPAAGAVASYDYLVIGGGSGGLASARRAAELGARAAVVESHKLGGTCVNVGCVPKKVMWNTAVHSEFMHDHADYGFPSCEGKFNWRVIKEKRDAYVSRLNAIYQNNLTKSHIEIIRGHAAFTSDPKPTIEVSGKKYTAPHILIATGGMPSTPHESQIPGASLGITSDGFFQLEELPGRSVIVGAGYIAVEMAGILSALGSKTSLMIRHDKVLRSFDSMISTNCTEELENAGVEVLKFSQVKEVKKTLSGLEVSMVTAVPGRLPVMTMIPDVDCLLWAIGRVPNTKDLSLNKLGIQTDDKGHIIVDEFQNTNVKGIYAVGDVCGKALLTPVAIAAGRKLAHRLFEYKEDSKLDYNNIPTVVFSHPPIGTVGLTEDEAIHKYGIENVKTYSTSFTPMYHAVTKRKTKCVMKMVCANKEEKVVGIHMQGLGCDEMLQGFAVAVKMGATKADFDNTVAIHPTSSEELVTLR
Briefly: hGR assay. The class given is biochemical.

The next data set relates to S. mansoni worms. The data set is described as follows: Antischistosomal activity against adult, ex vivo worms. The class given is cell-based, Schistosoma mansoni. The note with it: for antischistosomal activity against cultured ex vivo worms: 50 μM compound alone.
In data set [4] the target is T1, Schistosoma mansoni thioredoxin glutathione reductase (SmTGR). Briefly: SmTGR DTNB assay. The class given is biochemical.
In data set [5] the target is T4, Placenta wild type hTrxR (Homo sapiens, UniProt Q16881).
T4 sequence (Q16881 1-499 isoform Q16881-5): T2 sequence (Q16881 with tags, fused parts or gaps isoform Q16881-5) with C498U
Briefly: hTrxR Trx assay. It is filed as biochemical.

Data set [6] has as its target T4, Placenta wild type hTrxR. The data set is described as follows: hTrxR DTNB assay. It is filed as biochemical.
Data set [7] is described as follows: pKa estimation by absorption spectrophotometry. It is filed as physicochemical.
The nature of data set [8]: Cytotoxicity against human MRC-5 cells. The note with it: human lung MRC-5 fibroblasts (MRC-5SV2 cells). The class given is cell-based.
The nature of data set [9]: Glutathionylation reaction kinetics. It is filed as physicochemical. The note with it: pH 7.5.
The target in data set [10] is T1, Schistosoma mansoni thioredoxin glutathione reductase (SmTGR). Briefly: Time-dependent inactivation of SmTGR. The note with it: high inhibitor concentrations, 5 min incubation without NADPH.
Setting [11] is: DMSO, 0.1 M n-Bu4NPF6, v = 200 mV s^−1, reference KCl(3 M)/Ag/AgCl.
Where [12] appears, read: second wave, irr: irreversible reduction.

Substitutions are numbered along the chain they refer to.

Usually IC50 stands for the concentration that inhibits the measured activity by half. A low value points to higher potency. For `COc1ccc(OCC2=C(C)C(=O)c3ccccc3C2=O)cc1C(F)(F)F` [Compound 7, 2-((4-Methoxy-3-(trifluoromethyl)phenoxy)methyl)-3-methylnaphthalene-1,4-dione], in data set [1] (setting [11]), the Epa1 was −0.506 V. This molecule also had an Epc2 in data set [1] (DMSO, 0.1 M n-Bu4NPF6, v = 200 mV s^−1, reference KCl(3 M)/Ag/AgCl, second wave) of −1.132 V. In data set [1] (DMSO), this molecule came in with an Ipc1/Ipa1 of 2.92. In data set [1] (E½ = (Epc+Epa)/2, DMSO), the “E^1½” value was −0.563 V. In addition, the “E^2½” value in data set [1] (E½ = (Epc+Epa)/2, second wave, irr: irreversible reduction) is on record as −1.126 V. In addition, the Epa2 in data set [1] (setting [12]) is reported as −1.120 V. The molecule also gave an Ipc2/Ipa2 in data set [1] (setting [12]) of 1.75. In addition, in data set [1] (DMSO), the “ΔEp (first wave)” value was determined as 114 mV. This molecule also yielded a ΔE½ in data set [1] (ΔE½ = E^1½-E^2½) of 563 mV. Besides, in [2], the “second order rate constant ki/KI” value came to 1180 M⁻¹ s⁻¹. For the same molecule, the IC50 against Sec498Cys TrxR was above 50000 nM; in [3] it was 12000 nM; in [4], 200 nM; against Placenta wild type hTrxR [5] (IC50 hTrxR, text summary spanning the Trx assay and the DTNB assay), 800 to 1500 nM; at Placenta wild type hTrxR [6], 1500 nM. Besides, the “antischistosomal activity against cultured ex vivo worms” value in the data set with S. mansoni worms is on record as “active”. In addition, the “survival rates in the presence versus absence of RBCs after 24 hours” value in the data set on S. mansoni worms (50 μM, human red blood cells 10 μl/well, 24 hours) is “identical”. Moreover, the “dead parasites in the absence versus presence of RBCs after 48 hours” value with S. mansoni worms (50 μM, human red blood cells 10 μl/well, 48 hours) is “more parasites were dead in the absence of RBCs than in the presence of RBCs”. Besides, the “IC50 fold higher for hTrxR than for SmTGR” value on Placenta wild type hTrxR [5] (selectivity hTrxR versus SmTGR) was “around 5 fold”.

As usually defined, the pKa is the pH at which an ionisable group is half protonated. With `COc1ccc(OCC2=C(C(F)F)C(=O)c3ccccc3C2=O)cc1C(F)(F)F` [Compound 9, 2-(difluoromethyl)-3-((4-methoxy-3-(trifluoromethyl)phenoxy)methyl)naphthalene-1,4-dione], in [1] (setting [11]), the Epa1 is recorded as −0.215 V. In addition, in data set [1] (DMSO), the Ipc1/Ipa1 is listed as 1.67 and the “ΔEp (first wave)” value worked out at 111 mV. Moreover, the “E^1½” value in [1] (E½ = (Epc+Epa)/2, DMSO) is on record as −0.271 V. Moreover, the pKa in [7] is around 7.1. Moreover, half-maximal inhibition in data set [8] (IC50 at 3 days) was put at 11200 nM. In addition, the “antischistosomal activity against cultured ex vivo worms” value with S. mansoni worms was “inactive”. Also, in the data set on S. mansoni worms (50 μM, with or without human red blood cells (10 μl/well)), the “killing of worms whether RBCs were present or not” value is “no effect on killing the worms”. The molecule further gave an IC50 in data set [4] of 46 nM. The “decrease of the k2 values compared to the difluoromenadione itself” value in data set [9] is around 10 fold. In addition, in data set [10], the “SmTGR inactivation in the absence of NADPH” value was “resulted in inactivation”.
